Measured values from patent US4031231A, “Antibacterial composition comprising 3-fluoro-D-alanine or deutero analog in combination with auto-antagonist inhibitor” (priority 1976, dated 1977).
In brackets after ≈: the same amount, converted by molar mass. Where two headings read alike, the source gives them in different places.

Legend:
[1] = Stability in aqueous solution; assay type: physicochemical
[2] = Release of cycloserine or methyl-cycloserine in vivo when administered clinically; details: for effectiveness in releasing cycloserine or methyl-cycloserine in vivo: administered clinically, substantially avoiding dimerization
[3] = test system: Escherichia coli (Strain 2017); test: Growth inhibition (complete repression of growth) of Escherichia coli culture; assay type: cell-based; details: for concentration of FDA-autoantagonist-inhibitor at which growth is completely repressed in combination with 3-fluoro-D-alanine / inhibitor-effective concentration as percentage of its own minimum effective antibacterial concentration: combined with 3-fluoro-D-alanine at 50 μg/ml
Procedure: When the 3-fluoro-D-alanine, at this concentration of 50 μg/ml, is combined with an FDA-autoantagonist-inhibitor, such as cycloserine at concentrations of only 0.39 μg/ml, terizidone at 0.8 μg/ml, D-4-(1'-methyl-3'-oxo-1'-butenyl)amino-3-isoxazolidinone or its sodium salt at 0.72 μg/ml, or D-cis-cyclothreonine at approximately 2 μg/ml, growth of the Escherichia coli is completely repressed.

[4] = test system: Staphylococcus aureus 2949; test: Protection of mice infected with Staphylococcus aureus 2949 (ED50); assay type: in vivo, Staphylococcus aureus 2949; female C.D.1 mice; details: 30 LD50; subcutaneous at 0, 2, 4 hours; 50% protected for 7 days
Procedure: (§1) Female C.D.1 mice of average weight 21.0 g. are injected intraperitoneally with 0.5 ml. of an appropriate dilution of a 16-hour broth culture containing the indicated pathogen. (The severity of the infectious challenge is represented in each case as the multiple of the dilution of the broth culture which is lethal for only 50% of the untreated population, i.e. No. LD50.) Appropriate dosages of 3-fluoro-D-alanine(FDA) and D-cycloserine, individually, and combinations of these two components in a fixed ration of 1:1 are administered in 0.5 ml volume subcutaneously on the dorsal surface, promptly at the time of the injection, and at 2 hour and 4 hour intervals thereafter. The results of these tests, which are expressed as the ED50 dose, which is the statistically interpolated dose required to protect 50% of the infected population for a period of 7 days following challenge and treatment, are as follows: […]

[5] = test system: Serratia species 3374; test: Protection of mice infected with Serratia species 3374 (ED50); assay type: in vivo, Serratia species 3374; female C.D.1 mice; details: 3 LD50; subcutaneous at 0, 2, 4 hours; 50% protected for 7 days
Procedure: as §1

[6] = test system: Escherichia coli 2017; test: Survival of mice infected with Escherichia coli 2017; assay type: in vivo, Escherichia coli 2017; female C.D.1 mice; details: for number of survivors in each group of five infected mice: subcutaneous, 3 LD50
Procedure: Groups of five female C.D.1 mice of average weight 21.0 g are injected intraperitoneally with 0.5 ml of a diluted broth culture of Escherichia coli 2017 representing 3 LD50 of bacterial pathogens. The indicated dosages of 3-fluoro-D-alanine (FDA) and D-cycloserine are then promptly administered in a 0.5 ml volume by the subcutaneous route on the dorsal surface.
Across the top row of the tabulation are listed the number of mice surviving (in each group of five infected mice) for the indicated doses (mg) of 3-fluoro-D-alanine alone; in the first vertical column are listed the number surviving for the indicated doses (mg) of cycloserine alone; and in the second vertical column are listed the number of mice surviving for combination doses of 5.0 mg of 3-fluoro-D-alanine and the indicated amount (mg) of cycloserine.

[7] = test system: Escherichia coli (Strain 2017); test: Growth inhibition (complete repression of growth) of Escherichia coli culture; assay type: cell-based; details: for MIC: Escherichia coli, read-out: minimum concentration for complete inhibition (repression) of growth
[8] = individual component alone, E. coli Strain 2017

Row | Structure (SMILES) | stability in aqueous solution [1] | effectiveness in releasing cycloserine or methyl-cycloserine in vivo [2] | concentration of FDA-autoantagonist-inhibitor at which growth is completely repressed in combination with 3-fluoro-D-alanine [3] | inhibitor-effective concentration as percentage of its own minimum effective antibacterial concentration [3] | ED50, individual components [4] [mg/dose] | ED50, individual components [5] [mg/dose] | MIC [7, 8] [µg/mL] | further results
1 | CC(=O)C(C)=C(C)N[C@@H]1CONC1=O [D-4-(1',2'-dimethyl-3'-oxo-1'-butenyl)amino-3-isoxazolidinone] | remarkably stable in aqueous solution | extremely effective |  |  |  |  |  | 
2 | CC(=O)C=C(C)N[C@@H]1CONC1=O [D-4-(1'-methyl-3'-oxo-1'-butenyl)amino-3-isoxazolidinone] | remarkably stable in aqueous solution | extremely effective | 0.72 µg/mL |  |  |  |  | effectiveness in releasing cycloserine in the blood stream and in the bladder ([2]; blood stream, bladder): of particular effectiveness
3 | C[C@@H]1ONC(=O)[C@@H]1N [D-cis-cyclothreonine] |  |  | approximately 2 μg/ml | less than 2% |  |  |  | 
4 | N[C@H](CF)C(=O)O [FDA, 3-fluoro-D-alanine] |  |  |  |  | 0.801 | 1.7 | 3.12 (≈ 29.1 µM) | MIC ([3]; Escherichia coli, read-out: concentration at which growth is completely repressed): 3.2 µg/mL (≈ 29.9 µM); survival ([6]; 1.25 mg dose of 3-fluoro-D-alanine alone): 80%; survival ([6]; 5.0 mg dose of 3-fluoro-D-alanine alone (autoantagonism)): 20%; number of survivors in each group of five infected mice ([6]; FDA alone 0.078 mg): 0 mice; number of survivors in each group of five infected mice ([6]; FDA alone 0.312 mg): 3 mice; number of survivors in each group of five infected mice ([6]; FDA alone 1.25 mg): 4 mice; number of survivors in each group of five infected mice ([6]; FDA alone 5.0 mg): 1 mice; growth of the organism at higher concentration (autoantagonist action) ([7]; 3-fluoro-D-alanine alone at 50 μg/ml): extensive growth
5 | N[C@@H]1CON=C1O [cycloserine, D-4-amino-3-isoxazolidinone, reference compound] |  |  | 0.39 µg/mL | less than 2% | 0.400 | 2.5 | 25 (≈ 245 µM) | suppression of the autoantagonism shown by 3-fluoro-D-alanine ([6]; 0.156 mg of cycloserine with 5.0 mg of 3-fluoro-D-alanine): completely suppresses the autoantagonism; number of survivors in each group of five infected mice ([6]; D-cycloserine alone 0.078 mg): 0 mice; number of survivors in each group of five infected mice ([6]; D-cycloserine alone 0.312 mg): 0 mice; number of survivors in each group of five infected mice ([6]; D-cycloserine alone 1.25 mg): 3 mice; number of survivors in each group of five infected mice ([6]; D-cycloserine alone 5.0 mg): 5 mice; protection ([6]; cycloserine alone, 0.156 mg): zero protection; minimum concentration for complete inhibition (repression) of growth [7, 8]: 25 µg/mL
6 | O=C1NOCC1/N=C/c1ccc(/C=N/C2CONC2=O)cc1 (stereo not drawn) [terizidone] |  |  | 0.8 µg/mL | less than 2% |  |  |  | 
